Results from patent US7563774B2, “Combination of FBPase inhibitors and antidiabetic agents useful for the treatment of diabetes” (Metabasis Therapeutics, Inc., priority 2000, dated 2009).
Like-named read-outs stand apart in the source and are kept apart here.

Key:
[1] = system: Zucker Diabetic Fatty rats; test: Acute combination treatment of an insulin secretagogue and Compound J in the ZDF rat (Example X); type: in vivo
Procedure: Experimental Protocol: Zucker Diabetic Fatty rats (9.5 weeks of age) were fasted for 5 hours starting at 8 am. The animals were then divided into 4 treatments groups with statistically similar baseline blood glucose levels. Test compounds were administered by oral gavage. The treatments were as shown below:
One hour after saline or drug administration, all animals received a simulated meal in the form of an oral bolus of glucose (1 g/kg). Blood glucose was then monitored at regular time intervals for 3 hours. Test compounds were prepared as suspensions in 0.1% carboxymethylcellulose. Blood samples were obtained by nicking of a tail vein. Blood glucose was measured by means of a HemoCue glucose analyzer according to the manufacturer's instructions (HemoCue Inc., Mission Viejo, Calif.). Results are expressed as the mean ± standard error of the mean for all values.

[2] = system: ZDF rats; test: Chronic combination treatment of an insulin secretagogue and an FBPase inhibitor in the ZDF rat (Example Y); type: in vivo; details: maximal doses, 2 to 12 weeks
Text: Male ZDF rats are purchased at 7 weeks of age from Genetics Models Inc. (Indianapolis, Ind.). […] At 8 weeks of age, animals are divided into 4 treatment groups (n=8/group). The treatments are control, Compound J, glyburide, and the combination of Compound J and glyburide. […] Other parameters measured by standard assays include: lactate, glycerol, alanine, triglycerides, free fatty acids, ketone bodies, hepatic and muscle glycogen, cholesterol, VLDL, HDL, hemoglobin Alc, body weight, food and water intake, as well as other measures of carbohydrate, lipid, and protein metabolism. […] Differences between groups are evaluated ANOVA using an appropriate post hoc test. Results are considered significant with p<0.05.

[3] = system: Sprague-Dawley or Wistar rats; details: fasted rat, cited from earlier work; for ED50: 2 h
[4] = system: Goto-Kakizaki rats; test: Acute combination treatment of an alpha glucosidase inhibitor and an FBPase inhibitor in Goto-Kakizaki rats (Example EE); type: in vivo, rat
Procedure: Goto-Kakizaki rats, an animal model of lean NIDDM, were purchased at 5 weeks of age from Charles River Japan, Inc. (Tokyo, Japan). The rats were maintained under standard vivarium conditions (24-26° C., 12-hour light cycle, 12-hour dark cycle) and received standard chow and water ad libitum. At 18 weeks of age, animals were divided into 4 groups (n=5/group). The treatment groups were control, Compound J, acarbose (Bayer, Japan), and the combination of Compound J and acarbose. All animals were given 1 g/kg of corn starch by oral gavage. […] Acarbose was administered orally at a dose of 1 mg/kg simultaneously with starch. Blood glucose levels in tail vein samples were measured by means of a Glucoloader-F, an automatic glucose analyzer, (A&T Co., Ltd., Tokyo, Japan).

| SMILES | blood glucose after oral glucose load (FIG. 1) ([1]; glyburide 100 mg/kg, Compound J 300 mg/kg p.o.) | AUC glucose ([1]; initial 4 hours post drug, glyburide 100 mg/kg, Compound J 300 mg/kg p.o., oral glucose 1 g/kg) | maximally efficacious dose ([1]; pilot studies, ZDF rat) | glycemic control [2] | ED50 [3] | Gluc low,% ([3]; Dose 0.3) | Plasma Glucose, relative value (% of pre-treatment value) ([4]; 0 min) | Plasma Glucose ([4]; 0 min, Compound J 10 mg/kg p.o. at −60 min, acarbose 1 mg/kg p.o. with starch) | Plasma Glucose ([4]; 30 min after starch) | Plasma Glucose, relative value (% of pre-treatment value) ([4]; 30 min after starch) | Plasma Glucose ([4]; 60 min after starch) | Plasma Glucose, relative value (% of pre-treatment value) ([4]; 60 min after starch) | Plasma Glucose ([4]; 120 min after starch) | Plasma Glucose, relative value (% of pre-treatment value) ([4]; 120 min after starch) | Plasma Glucose ([4]; 240 min after starch) | Plasma Glucose, relative value (% of pre-treatment value) ([4]; 240 min after starch) | Plasma Glucose, relative value (% of pre-treatment value) ([4]; −60 min) | Plasma Glucose ([4]; −60 min relative to starch 1 g/kg) | Gluc low,% ([3]; Dose 0.01) |
| --- | --- | --- | --- | --- | --- | --- | --- | --- | --- | --- | --- | --- | --- | --- | --- | --- | --- | --- | --- |
| COc1ccc(Cl)cc1C(=O)NCCc1ccc(S(=O)(=O)NC(=O)NC2CCCCC2)cc1 [Glyburide, glyburide, reference compound] | suppressed the rise in blood glucose levels | 1324 ± 132 mg·h/dL | 100 mg/kg | becomes less and less effective over time | 0.255 (2 h) mg/kg | −25% | – | – | – | – | – | – | – | – | – | – | – | – | – |
| C[C@H]1O[C@H](O[C@H]2[C@H](O)[C@@H](O)[C@@H](O[C@H]3[C@H](O)[C@@H](O)C(O)O[C@@H]3CO)O[C@@H]2CO)[C@H](O)[C@@H](O)[C@@H]1N[C@H]1C=C(CO)[C@@H](O)[C@H](O)[C@H]1O (some centres unmarked) [Acarbose, acarbose, reference compound] | – | – | – | – | – | – | (129.4 +/− 2.8) % | 226.4 ± 5.3 mg/dL | 243.8 ± 8.5 mg/dL | (139.5 +/− 6.0) % | 247.2 ± 8.2 mg/dL | (141.3 +/− 4.9) % | 209.4 ± 5.9 mg/dL | (119.9 +/− 4.9) % | 164.2 ± 10.7 mg/dL | (93.5 +/− 4.7) % | (100.0 +/− 0.0) % | 175.4 ± 5.9 mg/dL | – |
| CCOc1cc(CC(=O)N[C@@H](CC(C)C)c2ccccc2N2CCCCC2)ccc1C(=O)O [Repaglinide] | – | – | – | – | 0.01 (2 h) mg/kg | – | – | – | – | – | – | – | – | – | – | – | – | – | −21% |
